{"source": "patent EP0506565A1", "about": "“Use of 4,9,11-trienic steroids in compositions for turkeys” (ROUSSEL-UCLAF, priority 1991, dated 1992)", "key": {"[1]": {"assay": "Plasma residues of TBA in orally treated turkeys", "format": "in vivo, dinde", "details": "à 10, 12, 14, 16 et 18 semaines; oral administration"}, "[2]": {"assay": "Observation of locomotor behaviour of treated turkeys", "format": "in vivo, dinde", "details": "oral administration"}, "[3]": {"assay": "Course of plasma transaminase levels in orally treated turkeys", "format": "in vivo, dinde", "details": "oral administration, compared with controls"}, "[4]": {"assay": "Biological test: trenbolone acetate given orally in the feed, weight gain and feed conversion index", "format": "in vivo, dinde femelle", "set-up": "GPM = Gain de poids cumulé: unit not given here", "excerpt": "L'essai a été effectué sur des dindes femelles âgées de 10 semaines.\nLes animaux sont répartis en 2 groupes : • un groupe témoin de 37 animaux, • un groupe de 37 animaux recevant de l'acétate de trenbolone dans leur nourriture.\nLes dindes reçoivent une quantité rationnée de nourriture renfermant l'acétate de trenbolone puis sont nourries ad libitum.\nOn calcule le poids moyen des dindes par pesée individuelle chaque semaine. On calcule le gain de poids moyen et l'indice de consommation c'est-à-dire (le poids total de nourriture que l'animal a reçu)/(gain de poids total) [formula]\nLes résultats sont résumés dans le tableau ci-dessus, ainsi que dans les courbes jointes en annexe. • Courbe 1 : évolution pondérale des dindes femelles de 9 à 19 semaines. • Courbe 2 : évolution de la différence entre les indices de consommation cumulés témoins-traités. • Courbe 3 : évolution de la différence entre les gains de poids moyens des animaux traités par rapport aux animaux témoins."}, "[5]": {"details": "administré par voie orale chez divers animaux notamment les bovins; cited from earlier work"}, "[6]": {"details": "11ème semaine, 0,7 mg/Jour/dinde per os"}, "[7]": {"details": "12ème semaine, 0,7 mg/Jour/dinde per os"}, "[8]": {"details": "13ème semaine, 0,7 mg/Jour/dinde per os"}, "[9]": {"details": "14ème semaine, 0,7 mg/Jour/dinde per os"}, "[10]": {"details": "15ème semaine, 0,7 mg/Jour/dinde per os"}, "[11]": {"details": "16ème semaine, 0,7 mg/Jour/dinde per os"}, "[12]": {"details": "17ème semaine, 1,4 mg /jour/dinde per os"}, "[13]": {"details": "18ème semaine, 1,4 mg /jour/dinde per os"}, "[14]": {"details": "19éme semaine, 1,4 mg /jour/dinde per os"}}}
{"smiles": "CC(=O)O[C@H]1CC[C@H]2[C@@H]3CCC4=CC(=O)CCC4=C3C=C[C@]12C", "note": "[acétate de trenbolone]", "values": [{"measurement": "résidus plasmatiques de TBA", "setting": "[1]", "result": "inférieurs à la limite de dosage"}, {"measurement": "comportement locomoteur", "setting": "[2]", "result": "aucune anomalie"}, {"measurement": "évolution du taux des transaminases plasmatiques (GOT et GPT)", "setting": "[3]", "result": "n'est pas modifiée par rapport aux témoins"}, {"measurement": "% variation = % de l'augmentation de GPM des traités par rapport aux témoins", "setting": "[4]; [6]", "result": 12, "unit": "%"}, {"measurement": "GPM = Gain de poids cumulé", "setting": "[4]; [6]", "result": "1606,1"}, {"measurement": "I.C. = indice de consommation", "setting": "[4]; [6]", "result": "2,05"}, {"measurement": "PM = poids moyen", "setting": "[4]; [6]", "result": "4967,6 grammes"}, {"measurement": "% variation = % de l'augmentation de GPM des traités par rapport aux témoins", "setting": "[4]; [7]", "result": 18, "unit": "%"}, {"measurement": "GPM = Gain de poids cumulé", "setting": "[4]; [7]", "result": "2303,7"}, {"measurement": "I.C. = indice de consommation", "setting": "[4]; [7]", "result": "2,05"}, {"measurement": "PM = poids moyen", "setting": "[4]; [7]", "result": "5665,2 grammes"}, {"measurement": "% variation = % de l'augmentation de GPM des traités par rapport aux témoins", "setting": "[4]; [8]", "result": 12, "unit": "%"}, {"measurement": "GPM = Gain de poids cumulé", "setting": "[4]; [8]", "result": "2907,2"}, {"measurement": "I.C. = indice de consommation", "setting": "[4]; [8]", "result": "2,54"}, {"measurement": "PM = poids moyen", "setting": "[4]; [8]", "result": "6268,7 grammes"}, {"measurement": "% variation = % de l'augmentation de GPM des traités par rapport aux témoins", "setting": "[4]; [9]", "result": 10, "unit": "%"}, {"measurement": "GPM = Gain de poids cumulé", "setting": "[4]; [9]", "result": "3839,4"}, {"measurement": "I.C. = indice de consommation", "setting": "[4]; [9]", "result": "2,66"}, {"measurement": "PM = poids moyen", "setting": "[4]; [9]", "result": "7200,9 grammes"}, {"measurement": "% variation = % de l'augmentation de GPM des traités par rapport aux témoins", "setting": "[4]; [10]", "result": 7, "unit": "%"}, {"measurement": "GPM = Gain de poids cumulé", "setting": "[4]; [10]", "result": "4463,6"}, {"measurement": "I.C. = indice de consommation", "setting": "[4]; [10]", "result": "2,66"}, {"measurement": "PM = poids moyen", "setting": "[4]; [10]", "result": "7825,1 grammes"}, {"measurement": "% variation = % de l'augmentation de GPM des traités par rapport aux témoins", "setting": "[4]; [11]", "result": 8, "unit": "%"}, {"measurement": "GPM = Gain de poids cumulé", "setting": "[4]; [11]", "result": 5258}, {"measurement": "I.C. = indice de consommation", "setting": "[4]; [11]", "result": "3,1"}, {"measurement": "PM = poids moyen", "setting": "[4]; [11]", "result": "8619,6 grammes"}, {"measurement": "% variation = % de l'augmentation de GPM des traités par rapport aux témoins", "setting": "[4]; [12]", "result": 9, "unit": "%"}, {"measurement": "GPM = Gain de poids cumulé", "setting": "[4]; [12]", "result": "6008,1"}, {"measurement": "I.C. = indice de consommation", "setting": "[4]; [12]", "result": "3,33"}, {"measurement": "PM = poids moyen", "setting": "[4]; [12]", "result": "9369,7 grammes"}, {"measurement": "% variation = % de l'augmentation de GPM des traités par rapport aux témoins", "setting": "[4]; [13]", "result": 11, "unit": "%"}, {"measurement": "GPM = Gain de poids cumulé", "setting": "[4]; [13]", "result": "6651,2"}, {"measurement": "I.C. = indice de consommation", "setting": "[4]; [13]", "result": "3,45"}, {"measurement": "PM = poids moyen", "setting": "[4]; [13]", "result": "10012,8 grammes"}, {"measurement": "% variation = % de l'augmentation de GPM des traités par rapport aux témoins", "setting": "[4]; [14]", "result": 11, "unit": "%"}, {"measurement": "GPM = Gain de poids cumulé", "setting": "[4]; [14]", "result": "7197,8"}, {"measurement": "I.C. = indice de consommation", "setting": "[4]; [14]", "result": "3,59"}, {"measurement": "PM = poids moyen", "setting": "[4]; [14]", "result": "10559,4 grammes"}, {"measurement": "activité", "setting": "[5]", "result": "relativement faible"}]}
